# Experiments:
# [1] = Repeated-dose toxicity study: serum clinical chemistry; assay type: in vivo, Sprague-Dawley rats; conditions: rat serum
# Procedure: Repeated-dose toxicity and toxicokinetic studies
# Repeated-dose oral toxicity study and toxicokinetic (TK) profiling was conducted in Sprague-Dawley rats. ITRI-148 was administered once daily using oral gavage at doses of 100, 300, 600, and 1000 mg/kg/day for 7 consecutive days, followed by a 7-day recovery period. Each dose group comprised 3 animals designated for toxicokinetic (TK) analysis and 6 animals for dose-range finding (DRF) evaluation. Clinical observations, body weights, and food consumption were monitored daily throughout the dosing and recovery periods. […]
# All samples were analyzed in duplicate. Hematology and serum clinical chemistry analyses were performed on Day 7 (end of dosing) and Day 14 (end of recovery). […]
# All procedures were conducted in compliance with institutional animal care and use guidelines. […]
# Targeting androgen receptor and the variants by an orally bioavailable
# Proteolysis Targeting Chimeras compound in castration resistant prostate cancer
# [2] = Metabolic stability in mouse liver microsomes; assay type: in vitro ADME
# Procedure: The metabolic stability of all PROTAC compounds in the screening phase (Table 1) was evaluated using mouse liver microsomes. Incubations were performed at 37 °C in phosphate buffer (pH 7.4) containing NADPH (1 mM), 0.5 mg/mL microsomal protein and 1 μM ITRI-148 (0.25 % DMSO) for 0, 5, 20, or 30 minutes, followed by quenching with acetonitrile (1:3, v/v) for HPLC analysis. To evaluate the species-specific metabolism of ITRI-148, its stability was assessed in liver microsomes from human, dog, rat, and mouse using same incubation conditions as above, with the time extending to 0, 15, 30, 45, and 60 minutes, followed by acetonitrile quenching (1:10) and LC-MS/MS analysis.
# [3] = PO 100 mg/kg/day 7 days, Day 14 (recovery)
# [4] = PO 300 mg/kg/day 7 days, Day 14 (recovery)
# [5] = PO 600 mg/kg/day 7 days, Day 14 (recovery)
# [6] = PO 1000 mg/kg/day 7 days, Day 7
# [7] = PO 1000 mg/kg/day 7 days, Day 14 (recovery)
compound,measurement,setting,value
O=C1CCC(N2C(=O)c3cccc(NCC(=O)N4CCC(N5CCC(C#Cc6ccc(C7CCN(C8=Nn9c(nnc9C(F)(F)F)CC8)CC7)cc6)CC5)CC4)c3C2=O)C(=O)N1 (centres unmarked) [ITRI-148],ALT,"[1]; PO 100 mg/kg/day 7 days, Day 7",102.3 ± 40.6 U/L
same,AST,"[1]; PO 100 mg/kg/day 7 days, Day 7",188.7 ± 59 U/L
same,BUN,"[1]; PO 100 mg/kg/day 7 days, Day 7",17.73 ± 2.8 mg/dL
same,CRE,"[1]; PO 100 mg/kg/day 7 days, Day 7",0.63 ± 0.06 mg/dL
same,ALT,[1]; [3],84.3 ± 31.6 U/L
same,AST,[1]; [3],136.7 ± 10.4 U/L
same,BUN,[1]; [3],13.23 ± 1.12 mg/dL
same,CRE,[1]; [3],0.4 ± 0.1 mg/dL
same,ALT,"[1]; PO 300 mg/kg/day 7 days, Day 7",85.3 ± 10 U/L
same,AST,"[1]; PO 300 mg/kg/day 7 days, Day 7",177 ± 37.4 U/L
same,BUN,"[1]; PO 300 mg/kg/day 7 days, Day 7",20.53 ± 2.06 mg/dL
same,CRE,"[1]; PO 300 mg/kg/day 7 days, Day 7",0.63 ± 0.06 mg/dL
same,ALT,[1]; [4],60.7 ± 7.1 U/L
same,AST,[1]; [4],122 ± 5.3 U/L
same,BUN,[1]; [4],10.9 ± 1.13 mg/dL
same,CRE,[1]; [4],0.33 ± 0.06 mg/dL
same,ALT,"[1]; PO 600 mg/kg/day 7 days, Day 7",76.7 ± 2.1 U/L
same,AST,"[1]; PO 600 mg/kg/day 7 days, Day 7",196 ± 66 U/L
same,BUN,"[1]; PO 600 mg/kg/day 7 days, Day 7",21.8 ± 1.81 mg/dL
same,CRE,"[1]; PO 600 mg/kg/day 7 days, Day 7",0.57 ± 0.06 mg/dL
same,ALT,[1]; [5],69.3 ± 11.5 U/L
same,AST,[1]; [5],170 ± 41.7 U/L
same,BUN,[1]; [5],13.03 ± 0.83 mg/dL
same,CRE,[1]; [5],0.47 ± 0.06 mg/dL
same,ALT,[1]; [6],68 ± 15.4 U/L
same,AST,[1]; [6],132.7 ± 14.5 U/L
same,BUN,[1]; [6],16.77 ± 2.32 mg/dL
same,CRE,[1]; [6],0.57 ± 0.06 mg/dL
same,ALT,[1]; [7],94.3 ± 41.2 U/L
same,AST,[1]; [7],150.3 ± 43 U/L
same,BUN,[1]; [7],16.23 ± 4.71 mg/dL
same,CRE,[1]; [7],0.37 ± 0.06 mg/dL
same,Remaining of intact drug (%),"[2]; mice liver microsomes, 1 μM, incubation up to 60 minutes",80.7 ± 1.8%
same,"remaining at 0.5 h, 1 μM","[2]; mouse, liver microsomes, pH 7.4, mice microsomes, 30 min of incubation, read-out: Microsome stability (% remaining)",97.2%
same,half-life at 1 μM,"[2]; mouse, pH 7.4, mice liver microsomes, read-out: Plasma Stability t1/2 (microsome panel)",> 1 h

# Reference: paper PMC12661400, “Oral bioavailable ITRI-148 degrades androgen receptor variants and overcomes antiandrogen resistance in advanced prostate cancer” (Neoplasia (New York, N.Y.), 2025)
